The values below come from article PMC11904948, “Peptide‐Drug Conjugate for Therapeutic Reprogramming of Tumor‐Associated Macrophages in Breast Cancer” (Advanced Science, 2025).

The experiment deals with orthotopic 4T1.2 tumors. As to the kind of experiment: MACTIDE-V monotherapy in orthotopic 4T1.2. In kind it is in vivo, Balb/c mice. On the procedure: We evaluated the effect of MACTIDE‐V on tumor progression and metastasis in the highly metastatic orthotopic 4T1.2 model.^[ [33] ^] When tumors reached 55 mm^3 we began the treatment with MACTIDE‐V or CtrlPep‐V every other day until day 23, using the same dose used in section 5. […] No body weight loss was detected in any of the groups (Figure S7, Supporting Information).
Figure 7 MACTIDE‐V slows tumor growth and suppresses lung metastasis in orthotopic 4T1.2. 4T1.2 bearing mice were treated with 9 doses of CtrlPep‐V, MACTIDE‐V (1 mg Kg^−1 in Verteporfin per dose), or PBS i.p. every other day, while monitoring the primary tumor volume (A). Mice were sacrificed on day 25, tumor weights were measured (B) and pulmonary metastasis areas were quantified from H&E sections (C). D–G) Tumor cell suspensions were analyzed by flow cytometry (n = 4 per group). H) Representative mIHC images of PBS, CtrlPep‐V, and MACTIDE‐V treated tumors, scale bar = 100 µm. I) CD8^+ T cells, CD4^+ T cells, and Treg density obtained from mIHC images (n = 6 mice/group), with every dot representing the mean cell density of each tumor obtained from 20 images. Median ± interquartile range. One‐way ANOVA with multiple comparisons, ^* p ≤ 0.05, ^** p ≤ 0.01.
5×10^5 4T1.2 cells in 50 µL of PBS was injected subcutaneously to 4th mammary fat pad. On day 7, mice were sorted into groups based on tumor volume, ≈55—60 mm^3 calculated based on the formula shown above. Mice were treated every other day with 500 µL of MACTIDE‐V, CtrlPep‐V (30 nmol), and PBS, 9 injections in total, n = 10 mice/group. The cumulative Verteporfin dose was 9 mg kg^−1. The last injection was on day 23. Four mice from each group were sacrificed on day 25 through anesthetic overdose and their tumors were analyzed by flow cytometry (FC) and mIHC. The rest of the mice were left to continue in the study with the initial intention of performing a survival study, however, all of these mice were sacrificed within 5 days based on their tumor size (above 1500 mm^3) or cachexia.
For FC, mice were not perfused, the tumors were cut into small pieces, digested using 10 mL of collagenase IV (200 U mL^−1, Gibco, catalog no.17104019), dispase (0.6 U mL^−1, Gibco, catalog no. 17105‐041) and DNase I (15 U mL^−1, AppliChem, catalog no. A3778) mixture on a rotating platform for up to 60 min at 37 °C, pipetting every 10 min. Red blood cells were lysed using 3 mL of ammonium‐chloride‐potassium lysis buffer. After that, cells were centrifuged (350×g, 7 min, +4 °C), filtered (100 µm cell strainer, Falcon, catalog no. 352360), and counted using the bright‐field mode of LUNA Automated Cell counter (Logos Biosystems). Cells were seeded at a concentration of 5×10^6 cells/100 µL of running buffer (RB) (1L of RB: 4 mL 0.5M EDTA + 100 mL FBS + the rest PBS) on the 96‐well conical bottom plate and incubated for 15 min in dark at RT in 50 µL of Zombie NIR Fixable Viability Kit (BioLegend). After that, 30 µL of blocking antibody (TruStain FcX, Biolegend) was added and incubated for 10 min in the dark at +4 °C. Then, to stain macrophages, 20 µL of antibody mixture was added, and incubated for 25 min in the dark at +4 °C after which 50 µL of RB was added, centrifuged, washed two times with 150 µL of RB, and taken up in 150 µL of RB. For intracellular staining, cells were fixed and permeabilized using the eBioscience Foxp3/Transcription Factor Staining Buffer Set (Thermofisher). Cells were then stained with 100 µL of antibody mixture and incubated for 40 min in the dark at RT. Cells were centrifuged, washed twice with 150 µL of RB, and resuspended in 150 µL of RB. Samples were analyzed using the SONY ID7000 spectral flow cytometer and the accompanying software (Table 4 ).
To determine the pulmonary metastatic area, lungs from MACTIDE‐V monotherapy were stained for hematoxylin and eosin according to the following protocol. […]

Setting [1] is: tumor flow cytometry, n = 4 per group.

Consider “Vert‐Ahx‐G(CTKSIPPIC)SPGAK‐OH (disulfide) [MACTIDE‐V]”, for which the primary tumor volume entry (9 doses i.p. every other day, 30 nmol (1 mg Kg^−1 in Verteporfin per dose), 4 weeks after tumor induction, versus CtrlPep‐V and PBS) was “significantly smaller tumor volumes”. Besides, the pulmonary metastasis result (9 doses i.p. every other day, 1 mg Kg^−1 in Verteporfin per dose, area from H&E sections) was “fewer pulmonary metastasis”. Besides, the endpoint tumor weights entry (9 doses i.p. every other day, 1 mg Kg^−1 in Verteporfin per dose, sacrifice day 25) is “smaller endpoint tumor weights”. The “CD4^+ T cell density (mIHC)” value (compared to CtrlPep‐V and PBS, n = 6 mice/group) is listed as “significant increase in CD4^+ T cell density”. Also, the “Treg density (mIHC)” value (n = 6 mice/group) is “no differences in Treg density”. For the same substance, under setting [1], the “MHC II^−CD206^+ subset of TAM/monocytes” value is “decreased”; the “PD‐1 expression in CD8^+ and CD4^+ T cells” value was “decrease in PD‐1 expression”; the “percentage of MHCII^+CD206^+ TAM/monocytes” value is reported as “increased”; the “tumor‐infiltrating B cells” value is reported as “no change”. Besides, the “proportion of tumor‐infiltrating T cells and NK cells” value (tumor flow cytometry, with respect to CtrlPep‐V and PBS, n = 4 per group) is given as “rise in the proportion”.
